# According to US11834466B2, “Benzoxaborole compounds and formulations thereof” (5Metis, Inc., priority 2017, dated 2023):
# Assays:
# Type in all cases: in vivo
# [1] = test system: wheat/SNB (Parastangaspora nodorum); assay: Greenhouse biological efficacy on wheat/SNB; conditions: BAG8 0.25 lb/acre at 20 gal/acre, inoculum 24 hours post spray, Example 26, Table 16, untreated control 6.750
# Procedure: (§1) The BAG8 SC formulations described in Example 10 (BAG8 20% SC) and Example 12 (BAG8 40% SC) and selected BAG8 SC-tank mix formulations described in Example 23 were tested under greenhouse conditions. Data was obtained for soybean/white mold (Sclerotinia sclerotiorum), wheat/SNB (Parastangaspora nodorum), and cucubit/downy mildew. For each experiment, the BAG8 was applied at a rate of 0.25 lb/acre and at a spray rate of 20 gal/acre. Various BAG8 EC formulations, the BAG8 WP formulation described in Example 18, and selected BAG8 SC-tank mix formulations described in Example 23 were tested under greenhouse conditions. Data was obtained for soybean/white mold (Sclerotinia sclerotiorum), wheat/SNB (Parastangaspora nodorum), and cucurbit/downy mildew. For each experiment, the BAG8 was applied at a rate of 0.25 lb/acre at a spray rate of 20 gal/acre (40 mL of spray solution prepared). All inoculum was applied 24 hours post BAG8 spray. Unformulated BAG8 was applied to the plants by dissolving BAG8 in a 30% acetone-70% water solution.
# [2] = test system: soybean/white mold (Sclerotinia sclerotiorum); assay: Greenhouse biological efficacy on soybean/white mold; conditions: BAG8 0.25 lb/acre at 20 gal/acre, inoculum 24 hours post spray, Example 29, Table 19, untreated control 7.333
# Procedure: as §1
# [3] = test system: cucurbit/downy mildew; assay: Greenhouse biological efficacy on cucurbit/downy mildew; conditions: BAG8 0.25 lb/acre at 20 gal/acre, inoculum 24 hours post spray
# Procedure: as §1
smiles,measurement,setting,value
"OB1OCc2cc(Cl)ccc21 [BAG8, 5-chlorobenzo[c][1,2]oxaborol-1(3H)-ol]",Mean Disease Severity,[1],5.750
same,Mean Disease Severity,[2],5.333
same,Mean Disease Severity,"[3]; Cucumber/Downy Mildew, Example 29, Table 20, untreated control 7.417",5.833
same,Mean Disease Severity,"[3]; Curcurbit/Downy Mildew, Example 27, Table 17, untreated control 8.364",2.000
same,Mean Disease Severity,"[3]; Curcurbit/Downy Mildew, Example 28, Table 18, untreated control 6.667",5.833
